Data set [1] has as its system alcohol induced hangover. Kind of data set: focus group: treating an alcohol induced hangover. Format: in vivo, human. The following applies: eight subjects (four male, four female); approximately 0.06 ounces powder in approximately 8 ounces of water or juice, oral, morning after an average of 9.5 alcoholic drinks; self-reported by each subject. How it is done:
Each subject consumed an average of 9.5 alcoholic drinks in an average time period of 4.1 hours over the course of one evening. Each subject reported that they experienced the effects of an alcohol induced hangover the following morning. Upon rising, the subjects each ingested approximately 0.06 ounces of methylsulfonylmethane powder which had been mixed with approximately 8 ounces of water or juice. Each subject attested to the fact the effects of their alcohol induced hangover were relieved within less than one hour after ingesting the methylsulfonylmethane compound.

For data set [2] the following is noted: fraction of the toxicity of common table salt; general statement, no test described; cited from earlier work.

As for `CS(C)(=O)=O` [methylsulfonylmethane], in data set [1], the “time until effects of alcohol induced hangover were relieved after ingesting” value is on record as “less than one”. Further, in data set [2], the “toxicity level relative to common table salt” value is 1/7.

These data come from patent US20040082667A1, “Hangover treatment” (priority 2002, published 2004).
